Common to all, as to format: biochemical
For assay [1], the target named is T1, recombinant alpha-glucosidase II (murine full-length glucosidase II, alpha and beta subunits, Glu 2) (Mus musculus, UniProt Q8BHN3).
T1 construct: made in house; host or cells: HEK-293T cells transduced with BacMam viruses (75% alpha, 25% beta); protein harvested from culture supernatant
Kind of assay: Alpha-glucosidase II assay (4-methylumbelliferyl-alpha-D-pyranoside substrate, fluorescence).

The target of assay [2] is recombinant human GAA (acid alpha-glucosidase) (Homo sapiens, UniProt P10253). Kind of assay: Acid alpha-glucosidase (GAA) assay (4-methylumbelliferyl-alpha-D-pyranoside substrate, fluorescence). In a few lines: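 IC50 from 4-PL curve fit of percent inhibition, based on fluorescence (365/440 nm) of released methylumbelliferone relative to uninhibited enzyme. Compound dilutions and human GAA incubated 60 min, 37 °C, before 20 min substrate reaction at 37 °C, quenched at pH 10.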

Assay [3] concerns the target T2, recombinant human GBA (beta-glucocerebrosidase) (Homo sapiens, UniProt P04062).
T2 sequence (P04062 40-536): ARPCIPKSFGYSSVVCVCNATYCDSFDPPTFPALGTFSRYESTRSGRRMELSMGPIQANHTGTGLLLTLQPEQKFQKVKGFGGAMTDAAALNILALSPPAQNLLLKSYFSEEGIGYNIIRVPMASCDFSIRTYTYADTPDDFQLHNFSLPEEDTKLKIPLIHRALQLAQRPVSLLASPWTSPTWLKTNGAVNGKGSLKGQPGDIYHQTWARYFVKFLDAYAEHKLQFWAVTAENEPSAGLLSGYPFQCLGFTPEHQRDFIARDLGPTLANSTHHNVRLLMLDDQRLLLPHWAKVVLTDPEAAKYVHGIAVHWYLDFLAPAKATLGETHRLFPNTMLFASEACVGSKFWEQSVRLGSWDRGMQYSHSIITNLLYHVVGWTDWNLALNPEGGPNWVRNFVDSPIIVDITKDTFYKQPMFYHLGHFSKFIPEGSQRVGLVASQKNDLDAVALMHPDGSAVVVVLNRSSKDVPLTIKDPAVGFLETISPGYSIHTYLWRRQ
Kind of assay: Beta-glucocerebrosidase (GBA, glucosylceramidase) assay (4-methylumbelliferyl-beta-D-pyranoside substrate, fluorescence). The protocol:
Beta-glucocerebrosidase (GBA, also referred to glucosylceramidase): To analyze inhibitory effects of a test compound, commercially available recombinant human GBA was incubated with multiple dilutions of test compound for 60 minutes at 37° C. 4-methylumbelliferyl-beta-D-pyranoside was then introduced to the mixture as substrate. Following incubation for 60 minutes at 37° C., 1,4-methyllumbelliferone was generated, and the reaction was stopped with the stop solution (0.5 M glycine; 0.3 M NaOH, pH 10). 1,4-methyllumbelliferone was detected by fluorescence (excitation at 365 nm, emission at 440 nm). Relative fluorescence compared to untreated enzymatic activity and test compound concentration is then plotted as a function of percent inhibition. The IC50 was determined using a 4-PL curve fit as the measure of relative inhibitory activity of each test compound (see Table 3).

The target in assay [4] is rat maltase (partially purified alpha-glucosidase from intestinal rat powder). Nature of the assay: Intestinal alpha-glucosidase assay, maltose substrate (Glucose GO Kit). An outline of the steps: (§1)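 Glucose release is the read-out: compounds at multiple dilutions are first held with partially purified rat intestinal alpha-glucosidase for 60 min at 37 °C, after which maltose or sucrose substrate reacts for 30 min at 37 °C before a 5 min 90 °C stop. IC50 comes from a four-parameter logistic fit.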

The target of assay [5] is rat sucrase (partially purified alpha-glucosidase from intestinal rat powder) (Rattus norvegicus, UniProt P23739). Nature of the assay: Intestinal alpha-glucosidase assay, sucrose substrate (Glucose GO Kit). An outline of the steps:
as §1

[6] abbreviates: Glucosidase 2, read-out: Glu2 IC50.

Where two headings read alike, the source gives them in different places.

Sequence of rat sucrase (partially purified alpha-glucosidase from intestinal rat powder) (P23739 whole entry): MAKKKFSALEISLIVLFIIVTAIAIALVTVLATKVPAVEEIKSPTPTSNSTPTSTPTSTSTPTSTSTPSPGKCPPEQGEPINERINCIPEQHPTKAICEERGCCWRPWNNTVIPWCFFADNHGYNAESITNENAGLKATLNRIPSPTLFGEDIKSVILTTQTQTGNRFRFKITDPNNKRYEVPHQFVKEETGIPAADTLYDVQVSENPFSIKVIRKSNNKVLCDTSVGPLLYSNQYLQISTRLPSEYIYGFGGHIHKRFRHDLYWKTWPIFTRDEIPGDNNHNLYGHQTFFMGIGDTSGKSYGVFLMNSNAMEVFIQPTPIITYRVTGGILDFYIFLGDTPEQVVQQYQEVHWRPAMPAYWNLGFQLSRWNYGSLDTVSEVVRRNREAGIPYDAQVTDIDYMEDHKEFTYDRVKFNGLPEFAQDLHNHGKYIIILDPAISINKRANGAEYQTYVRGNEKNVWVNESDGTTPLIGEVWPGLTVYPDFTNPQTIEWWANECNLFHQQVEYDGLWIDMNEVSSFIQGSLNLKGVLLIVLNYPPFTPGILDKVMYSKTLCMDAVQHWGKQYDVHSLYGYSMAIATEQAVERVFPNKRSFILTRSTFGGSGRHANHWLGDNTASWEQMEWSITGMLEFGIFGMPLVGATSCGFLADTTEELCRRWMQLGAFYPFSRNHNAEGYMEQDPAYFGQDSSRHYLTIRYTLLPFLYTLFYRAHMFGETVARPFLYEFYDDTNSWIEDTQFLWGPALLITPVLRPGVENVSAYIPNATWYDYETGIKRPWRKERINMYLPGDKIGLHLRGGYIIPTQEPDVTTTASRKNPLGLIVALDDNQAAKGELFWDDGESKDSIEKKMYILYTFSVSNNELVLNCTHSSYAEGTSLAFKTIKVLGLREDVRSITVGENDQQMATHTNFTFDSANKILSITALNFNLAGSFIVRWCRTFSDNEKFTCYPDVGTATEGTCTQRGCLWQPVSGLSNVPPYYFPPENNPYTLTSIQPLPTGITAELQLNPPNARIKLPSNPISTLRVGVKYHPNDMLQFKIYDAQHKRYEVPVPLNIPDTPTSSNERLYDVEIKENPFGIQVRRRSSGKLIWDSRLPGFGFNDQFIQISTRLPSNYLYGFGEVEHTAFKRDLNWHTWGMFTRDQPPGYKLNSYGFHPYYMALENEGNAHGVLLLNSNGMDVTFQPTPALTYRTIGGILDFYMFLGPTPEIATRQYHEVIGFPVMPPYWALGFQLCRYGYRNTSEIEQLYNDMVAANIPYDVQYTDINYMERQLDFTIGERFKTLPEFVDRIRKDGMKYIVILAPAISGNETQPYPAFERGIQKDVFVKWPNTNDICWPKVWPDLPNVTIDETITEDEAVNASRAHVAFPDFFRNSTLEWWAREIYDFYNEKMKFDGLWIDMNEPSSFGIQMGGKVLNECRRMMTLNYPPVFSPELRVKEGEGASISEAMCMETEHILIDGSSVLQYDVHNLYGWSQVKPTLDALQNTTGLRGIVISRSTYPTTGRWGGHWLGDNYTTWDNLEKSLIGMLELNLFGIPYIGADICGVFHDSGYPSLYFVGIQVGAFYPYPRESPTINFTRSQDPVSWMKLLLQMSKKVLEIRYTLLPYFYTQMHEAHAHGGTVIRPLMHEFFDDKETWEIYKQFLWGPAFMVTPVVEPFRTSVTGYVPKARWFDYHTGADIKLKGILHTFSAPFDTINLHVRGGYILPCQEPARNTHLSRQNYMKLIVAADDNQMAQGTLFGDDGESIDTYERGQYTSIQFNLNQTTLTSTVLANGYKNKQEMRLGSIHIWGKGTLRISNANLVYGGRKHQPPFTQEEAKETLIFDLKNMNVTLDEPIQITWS
T1 sequence (O08795 15-521): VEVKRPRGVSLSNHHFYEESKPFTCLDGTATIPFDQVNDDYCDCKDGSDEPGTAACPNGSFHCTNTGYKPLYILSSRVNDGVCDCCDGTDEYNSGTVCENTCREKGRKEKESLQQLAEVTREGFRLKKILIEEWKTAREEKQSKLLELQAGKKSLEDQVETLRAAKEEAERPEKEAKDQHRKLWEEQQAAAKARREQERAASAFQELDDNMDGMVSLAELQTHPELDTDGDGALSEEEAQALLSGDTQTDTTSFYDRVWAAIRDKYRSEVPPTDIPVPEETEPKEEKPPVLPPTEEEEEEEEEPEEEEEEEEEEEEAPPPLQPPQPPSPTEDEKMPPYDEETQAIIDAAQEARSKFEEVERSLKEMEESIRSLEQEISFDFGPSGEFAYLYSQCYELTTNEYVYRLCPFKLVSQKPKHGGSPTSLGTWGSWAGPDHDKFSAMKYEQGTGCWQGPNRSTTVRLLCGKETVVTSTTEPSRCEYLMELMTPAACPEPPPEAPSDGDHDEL
T1 sequence (Q8BHN3 33-944): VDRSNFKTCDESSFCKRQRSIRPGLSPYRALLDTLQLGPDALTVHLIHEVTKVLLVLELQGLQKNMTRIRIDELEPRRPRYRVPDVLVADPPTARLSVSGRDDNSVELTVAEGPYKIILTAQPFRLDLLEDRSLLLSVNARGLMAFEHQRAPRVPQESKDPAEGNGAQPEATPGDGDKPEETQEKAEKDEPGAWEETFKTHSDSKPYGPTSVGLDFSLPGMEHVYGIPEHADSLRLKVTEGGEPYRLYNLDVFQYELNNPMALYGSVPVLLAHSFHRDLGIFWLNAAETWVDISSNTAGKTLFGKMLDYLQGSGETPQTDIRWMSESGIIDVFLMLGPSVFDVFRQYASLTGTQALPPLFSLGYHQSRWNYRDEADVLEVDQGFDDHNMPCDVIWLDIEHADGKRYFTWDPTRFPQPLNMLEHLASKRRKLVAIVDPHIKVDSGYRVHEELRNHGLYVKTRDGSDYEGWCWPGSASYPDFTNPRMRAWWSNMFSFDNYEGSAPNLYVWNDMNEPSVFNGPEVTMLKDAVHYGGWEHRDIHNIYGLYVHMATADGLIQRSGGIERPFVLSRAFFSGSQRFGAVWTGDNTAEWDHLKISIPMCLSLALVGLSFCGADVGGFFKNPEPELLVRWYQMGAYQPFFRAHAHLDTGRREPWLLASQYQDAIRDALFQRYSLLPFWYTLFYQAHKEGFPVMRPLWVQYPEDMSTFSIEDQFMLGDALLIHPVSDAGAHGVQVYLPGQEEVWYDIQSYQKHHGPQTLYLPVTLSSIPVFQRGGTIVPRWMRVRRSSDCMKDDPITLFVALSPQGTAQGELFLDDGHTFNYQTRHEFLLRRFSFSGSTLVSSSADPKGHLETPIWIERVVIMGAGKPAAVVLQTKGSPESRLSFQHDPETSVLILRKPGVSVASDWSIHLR

On to `N#Cc1cc(Cl)cc(NCCc2ccc(CCN3C[C@H](O)[C@@H](O)[C@H](O)[C@H]3CO)cc2)c1` [Compound 1134, 3-chloro-5-{[2-(4-{2-[(2R,3R,4R,5S)-3,4,5-trihydroxy-2-(hydroxymethyl)piperidin-1-yl]ethyl}phenyl)ethyl]amino}benzonitrile], for which the IC50 in assay [1] (setting [6]) amounted to 1 nM; in assay [2], 167 nM; in assay [3], 2360 nM; in assay [4], 130 nM; in assay [5], 259 nM.

Regarding `O=[N+]([O-])c1cc(C2CC2)ccc1NCCCCCCN1C[C@H](O)[C@@H](O)[C@H](O)[C@H]1CO` [Compound 1136, (2R,3R,4R,5S)-1-{6-[(4-cyclopropyl-2-nitrophenyl)amino]hexyl}-2-(hydroxymethyl)piperidine-3,4,5-triol], the IC50 in assay [1] (setting [6]) is 1 nM; in assay [2], 9 nM; in assay [3], 37 nM; in assay [4] it was less than 1 nM; in assay [5], less than 1 nM.

With `O=[N+]([O-])c1cc(-c2ccccc2)ccc1NCCCCCCN1C[C@H](O)[C@@H](O)[C@H](O)[C@H]1CO` [Compound 1138, (2R,3R,4R,5S)-2-(hydroxymethyl)-1-[6-({3-nitro-[1,1′-biphenyl]-4-yl}amino)hexyl]piperidine-3,4,5-triol], the IC50 in assay [1] was 2 nM; in assay [2] it was less than 1 nM; in assay [3], 18 nM; in assay [4] it was less than 1 nM; in assay [5], less than 1 nM.

On to `[N-]=[N+]=Nc1ccc(NCCc2cc(Br)cc(CCN3C[C@H](O)[C@@H](O)[C@H](O)[C@H]3CO)c2)c([N+](=O)[O-])c1` [Compound 1140, (2R,3R,4R,5S)-1-[2-(3-{2-[(4-azido-2-nitrophenyl)amino]ethyl}-5-bromophenyl)ethyl]-2-(hydroxymethyl)piperidine-3,4,5-triol], for which the IC50 in assay [1] (setting [6]) was determined as 45 nM; in assay [2] it was 2090 nM; in assay [3], 674 nM; in assay [4], 3120 nM; in assay [5], 4140 nM.

For `COc1cc(CC2CCOC2)cc(NCCCCCCN2C[C@H](O)[C@@H](O)[C@H](O)[C@H]2CO)c1` (stereo partly drawn) [Compound 1141, (2R,3R,4R,5S)-2-(hydroxymethyl)-1-[6-({3-methoxy-5-[(oxolan-3-yl)methyl]phenyl}amino)hexyl]piperidine-3,4,5-triol], the IC50 in assay [1] (setting [6]) is 139 nM; in assay [2] it was 188 nM; in assay [3], 8060 nM; in assay [4], 43 nM; in assay [5] it was 696 nM.

In the case of `[N-]=[N+]=Nc1ccc(NCCNc2cc(Cl)cc(CCN3C[C@H](O)[C@@H](O)[C@H](O)[C@H]3CO)c2)c([N+](=O)[O-])c1` [Compound 1143, (2R,3R,4R,5S)-1-{2-[3-({2-[(4-azido-2-nitrophenyl)amino]ethyl}amino)-5-chlorophenyl]ethyl}-2-(hydroxymethyl)piperidine-3,4,5-triol], the IC50 stood at 2 nM in assay [1] (setting [6]); 796 nM in assay [2]; 404 nM in assay [3]; 2060 nM in assay [4]; 2010 nM in assay [5].

In the case of `COc1cc(Cc2ccccc2)cc(NCCCCCCN2C[C@H](O)[C@@H](O)[C@H](O)[C@H]2CO)c1` [Compound 1145, (2R,3R,4R,5S)-1-{6-[(3-benzyl-5-methoxyphenyl)amino]hexyl}-2-(hydroxymethyl)piperidine-3,4,5-triol], the IC50 is less than 1 nM in assay [1] (setting [6]); 60 nM in assay [2]; 458 nM in assay [3]; less than 1 nM in assay [4]; 3 nM in assay [5].

Turning to `COc1cc(NCCCCCCN2C[C@H](O)[C@@H](O)[C@H](O)[C@H]2CO)cc(C2CCCO2)c1` (stereo partly drawn) [Compound 1146, (2R,3R,4R,5S)-2-(hydroxymethyl)-1-(6-{[3-methoxy-5-(oxolan-2-yl)phenyl]amino}hexyl)piperidine-3,4,5-triol], the IC50 in assay [1] (setting [6]) was 15 nM; in assay [2] it was 68 nM; in assay [3], 2170 nM; in assay [4], 23 nM; in assay [5], 92 nM.

These data come from patent US20250197372A1 (priority 2020, published 2025).
